Test [1] is described as follows: Antagonist activity at PAR1 in human platelet-rich plasma assessed as reduction in thrombin-stimulated platelet aggregation preincubated for 3 mins followed by thrombin stimulation measured after 5 mins by aggregometric analysis.
Test [2] in a line: Antagonist activity at PAR1 in human platelet-rich plasma assessed as reduction in TRAP-stimulated platelet aggregation preincubated for 20 mins followed by TRAP stimulation measured after 5 mins by aggregometric analysis.
A short description of test [3]: Antagonist activity at PAR1 in human platelet-rich plasma assessed as reduction in thrombin-stimulated platelet aggregation preincubated for 3 mins followed by thrombin stimulation measured after 5 mins by aggregometric analysis. The source holds these as a separate data set.

As to `C[C@H]1CC[C@@H]2C(C)(C)[C@H](O)CC[C@@]2(C)[C@@H]1/C=C/c1ccc(-c2cccc(F)c2)cn1`, the half-maximal inhibitory concentration (IC50) in test [1] came out at 650 nM; in test [2], 1600 nM.
On to `CCOC(=O)N[C@@H]1CC[C@@H]2[C@@H](C1)C[C@H]1C(=O)O[C@H](C)[C@H]1[C@H]2C=Cc1ccc(-c2cccc(F)c2)cn1` [Ethyl [(3aR,4aR,8aR,9aS)-9(S)-[(E)-2-[5-(3-fluorophenyl)-2-pyridinyl]ethenyl]dodecahydro-1(R)-methyl-3-oxonaphtho[2,3-c]furan-6(R)-yl]carbamate], for which the IC50 in test [3] stood at 81 nM; in test [2] it was 31 nM.

For orientation: IC50 means the concentration that inhibits the measured activity by half.

The record behind these values is BindingDB's records for doi:10.1021/acs.jmedchem.7b00951 (Shandong University, 2017).
